Source: ChEMBL document CHEMBL1781871, “Discovery and SAR of novel mGluR5 non-competitive antagonists not based on an MPEP chemotype” (Bioorg Med Chem Lett, 2009)

Key:
[1] = molecular target: T1, Metabotropic glutamate receptor 5 (Homo sapiens, UniProt P41594); assay: Non-competitive antagonist activity at mGluR5; assay type: functional
Target sequence in this assay (P41594 whole entry): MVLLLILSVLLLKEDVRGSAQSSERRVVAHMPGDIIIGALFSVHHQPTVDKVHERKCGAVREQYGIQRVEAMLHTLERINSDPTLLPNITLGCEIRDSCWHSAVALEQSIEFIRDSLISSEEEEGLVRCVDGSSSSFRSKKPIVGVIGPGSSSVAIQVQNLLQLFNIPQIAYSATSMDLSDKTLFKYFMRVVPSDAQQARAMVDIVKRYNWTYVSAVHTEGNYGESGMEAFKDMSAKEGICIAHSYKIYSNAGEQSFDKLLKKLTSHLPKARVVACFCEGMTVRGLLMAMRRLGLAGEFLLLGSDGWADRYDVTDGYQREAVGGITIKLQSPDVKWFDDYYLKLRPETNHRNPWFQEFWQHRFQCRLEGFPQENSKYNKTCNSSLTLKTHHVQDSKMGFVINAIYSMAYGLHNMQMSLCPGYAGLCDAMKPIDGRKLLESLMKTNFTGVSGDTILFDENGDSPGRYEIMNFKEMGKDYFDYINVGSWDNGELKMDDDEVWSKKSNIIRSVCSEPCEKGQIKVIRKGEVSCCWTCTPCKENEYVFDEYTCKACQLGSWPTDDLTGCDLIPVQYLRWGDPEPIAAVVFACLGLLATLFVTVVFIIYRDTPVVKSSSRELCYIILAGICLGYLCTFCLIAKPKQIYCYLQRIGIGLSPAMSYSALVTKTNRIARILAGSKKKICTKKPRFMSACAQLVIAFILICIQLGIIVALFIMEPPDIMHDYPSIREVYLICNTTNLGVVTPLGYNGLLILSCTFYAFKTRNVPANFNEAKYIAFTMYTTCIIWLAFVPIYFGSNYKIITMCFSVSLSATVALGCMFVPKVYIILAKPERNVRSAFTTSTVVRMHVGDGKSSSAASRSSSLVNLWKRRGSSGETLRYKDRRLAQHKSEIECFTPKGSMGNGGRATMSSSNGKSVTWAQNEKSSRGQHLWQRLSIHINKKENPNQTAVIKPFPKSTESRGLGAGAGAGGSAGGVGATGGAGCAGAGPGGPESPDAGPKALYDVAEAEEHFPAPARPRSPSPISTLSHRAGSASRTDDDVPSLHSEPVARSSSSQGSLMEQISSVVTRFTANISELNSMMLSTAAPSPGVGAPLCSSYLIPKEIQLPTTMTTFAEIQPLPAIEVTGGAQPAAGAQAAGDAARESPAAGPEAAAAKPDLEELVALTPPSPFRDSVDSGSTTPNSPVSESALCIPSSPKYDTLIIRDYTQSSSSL

[2] = molecular target: T1, Metabotropic glutamate receptor 5; assay: Non-competitive antagonist activity at mGluR5 at 30 uM relative to glutamate; assay type: functional; set-up: scale not given: the % may be the effect or the level left
Target sequence in this assay (P41594 21-1212 limits assumed): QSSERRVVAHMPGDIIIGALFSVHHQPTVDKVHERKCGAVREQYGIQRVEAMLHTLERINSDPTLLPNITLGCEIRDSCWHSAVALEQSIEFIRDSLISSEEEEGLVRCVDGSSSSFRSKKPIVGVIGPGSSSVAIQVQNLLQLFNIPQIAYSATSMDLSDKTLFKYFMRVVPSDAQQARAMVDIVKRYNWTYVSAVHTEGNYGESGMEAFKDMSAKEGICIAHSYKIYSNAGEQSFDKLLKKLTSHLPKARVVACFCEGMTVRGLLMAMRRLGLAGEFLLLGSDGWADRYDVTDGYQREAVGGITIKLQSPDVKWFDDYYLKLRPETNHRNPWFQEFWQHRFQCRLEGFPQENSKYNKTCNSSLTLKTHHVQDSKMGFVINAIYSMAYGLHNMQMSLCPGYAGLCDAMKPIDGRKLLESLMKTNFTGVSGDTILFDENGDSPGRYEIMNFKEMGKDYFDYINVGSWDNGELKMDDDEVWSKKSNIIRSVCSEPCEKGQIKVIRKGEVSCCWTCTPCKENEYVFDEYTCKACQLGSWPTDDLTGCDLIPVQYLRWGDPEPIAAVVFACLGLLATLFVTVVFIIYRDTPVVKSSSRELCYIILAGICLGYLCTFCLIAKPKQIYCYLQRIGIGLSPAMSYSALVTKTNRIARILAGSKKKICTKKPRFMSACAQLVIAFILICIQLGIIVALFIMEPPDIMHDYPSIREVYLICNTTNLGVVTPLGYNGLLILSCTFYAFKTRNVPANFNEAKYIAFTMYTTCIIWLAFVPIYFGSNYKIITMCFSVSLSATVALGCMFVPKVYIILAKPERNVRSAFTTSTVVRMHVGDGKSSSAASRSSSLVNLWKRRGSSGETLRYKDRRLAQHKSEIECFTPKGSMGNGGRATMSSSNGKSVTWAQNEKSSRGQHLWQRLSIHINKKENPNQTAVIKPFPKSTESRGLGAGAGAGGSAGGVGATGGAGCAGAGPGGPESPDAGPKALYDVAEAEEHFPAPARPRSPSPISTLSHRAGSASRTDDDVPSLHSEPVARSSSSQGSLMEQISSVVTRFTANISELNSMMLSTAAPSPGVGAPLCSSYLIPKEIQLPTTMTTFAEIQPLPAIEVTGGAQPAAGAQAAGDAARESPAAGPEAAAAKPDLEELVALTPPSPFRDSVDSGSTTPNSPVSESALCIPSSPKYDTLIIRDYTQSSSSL

[3] = molecular target: T1, Metabotropic glutamate receptor 5; assay: Positive allosteric modulation of mGluR5
Target sequence in this assay (P41594 whole entry): as the sequence (P41594 whole entry) above

[4] = molecular target: Metabotropic glutamate receptor 2 (Homo sapiens, UniProt Q14416); assay: Inhibition of mGluR2
Metabotropic glutamate receptor 2, sequence (Q14416 whole entry): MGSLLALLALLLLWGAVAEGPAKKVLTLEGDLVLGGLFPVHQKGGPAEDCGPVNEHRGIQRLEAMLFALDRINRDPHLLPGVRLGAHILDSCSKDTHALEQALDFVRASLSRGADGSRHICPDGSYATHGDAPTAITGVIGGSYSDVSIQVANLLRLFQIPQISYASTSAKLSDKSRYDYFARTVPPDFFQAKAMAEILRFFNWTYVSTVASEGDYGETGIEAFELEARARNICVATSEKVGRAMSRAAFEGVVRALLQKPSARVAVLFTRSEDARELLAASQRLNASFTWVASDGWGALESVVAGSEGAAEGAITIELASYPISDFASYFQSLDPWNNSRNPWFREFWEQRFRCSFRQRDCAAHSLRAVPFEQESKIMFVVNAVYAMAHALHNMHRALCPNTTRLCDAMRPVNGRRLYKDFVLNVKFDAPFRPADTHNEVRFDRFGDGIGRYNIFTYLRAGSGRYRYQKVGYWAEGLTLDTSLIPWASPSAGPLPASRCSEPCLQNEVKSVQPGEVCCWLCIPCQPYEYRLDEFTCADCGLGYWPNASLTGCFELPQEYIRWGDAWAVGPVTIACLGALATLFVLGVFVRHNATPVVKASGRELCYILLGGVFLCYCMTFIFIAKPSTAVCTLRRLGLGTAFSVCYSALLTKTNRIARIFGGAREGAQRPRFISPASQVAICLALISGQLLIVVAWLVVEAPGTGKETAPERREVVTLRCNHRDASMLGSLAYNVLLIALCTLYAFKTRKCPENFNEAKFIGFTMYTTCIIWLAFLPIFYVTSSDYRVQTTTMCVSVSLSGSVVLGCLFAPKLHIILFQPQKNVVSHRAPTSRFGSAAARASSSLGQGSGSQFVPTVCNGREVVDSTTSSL

[5] = molecular target: Metabotropic glutamate receptor 7 (Homo sapiens, UniProt Q14831); assay: Inhibition of mGluR7
Metabotropic glutamate receptor 7, sequence (Q14831 whole entry): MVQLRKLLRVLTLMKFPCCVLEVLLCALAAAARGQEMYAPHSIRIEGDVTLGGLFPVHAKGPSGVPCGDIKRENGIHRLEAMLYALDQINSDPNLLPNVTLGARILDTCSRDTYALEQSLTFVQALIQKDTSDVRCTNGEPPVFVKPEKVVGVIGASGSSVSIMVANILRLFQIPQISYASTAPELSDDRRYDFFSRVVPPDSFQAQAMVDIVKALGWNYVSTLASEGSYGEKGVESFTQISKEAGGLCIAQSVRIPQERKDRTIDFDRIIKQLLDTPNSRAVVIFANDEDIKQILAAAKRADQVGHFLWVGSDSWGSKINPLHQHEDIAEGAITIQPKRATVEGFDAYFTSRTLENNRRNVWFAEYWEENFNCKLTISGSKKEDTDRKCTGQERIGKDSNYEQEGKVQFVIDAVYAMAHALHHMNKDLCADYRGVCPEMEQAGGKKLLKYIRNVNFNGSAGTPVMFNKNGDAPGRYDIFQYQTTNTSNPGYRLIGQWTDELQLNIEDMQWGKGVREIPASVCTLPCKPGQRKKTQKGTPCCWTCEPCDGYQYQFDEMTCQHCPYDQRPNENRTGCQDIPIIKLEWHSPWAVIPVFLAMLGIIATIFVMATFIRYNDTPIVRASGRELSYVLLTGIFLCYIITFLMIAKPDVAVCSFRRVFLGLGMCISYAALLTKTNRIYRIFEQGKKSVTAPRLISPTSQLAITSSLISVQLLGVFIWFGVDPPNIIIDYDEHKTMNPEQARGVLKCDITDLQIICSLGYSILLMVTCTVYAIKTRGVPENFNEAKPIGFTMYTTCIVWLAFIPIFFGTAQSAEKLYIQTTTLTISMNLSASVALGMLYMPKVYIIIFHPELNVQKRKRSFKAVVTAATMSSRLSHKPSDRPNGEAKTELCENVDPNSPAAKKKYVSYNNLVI

[6] = molecular target: Metabotropic glutamate receptor 8 (Homo sapiens, UniProt O00222); assay: Inhibition of mGluR8
[7] = molecular target: Metabotropic glutamate receptor 4 (Homo sapiens, UniProt Q14833); assay: Inhibition of mGluR4
[8] = molecular target: Metabotropic glutamate receptor 3 (Homo sapiens, UniProt Q14832); assay: Inhibition of mGluR3
[9] = molecular target: T1, Metabotropic glutamate receptor 5; assay: Positive allosteric modulation of mGluR5 at 30 uM relative to glutamate
Target sequence in this assay (P41594 21-1212 limits assumed): as the sequence (P41594 21-1212 limits assumed) above

[10] = molecular target: Metabotropic glutamate receptor 1 (Homo sapiens, UniProt Q13255); assay: Inhibition of mGluR1

IC50 [1]	Activity [2]	Compound	also measured
> 30 µM		O=C(C1CCCCC1)N1CCCC2(CCCCC2)C1	
> 10 µM	52.1%	O=C(Cc1cccs1)N1CCCC2(CCCCC2)C1	
	4.23%	O=C(CSc1ccccc1)N1CCCC2(CCCCC2)C1	
1.18 µM	2.69%	O=C(c1cccs1)N1CCCC2(CCCCC2)C1	
> 30 µM		O=C(c1cccnc1)N1CCCC2(CCCCC2)C1	
	3.68%	N#Cc1ccccc1N1CCN(C(=O)C23CC4CC(CC(C4)C2)C3)CC1	
> 30 µM		O=C(N1CCN(c2ccccc2Cl)CC1)C12CC3CC(CC(C3)C1)C2	
5.02 µM	2.39%	O=C(c1cnc2ccccc2n1)N1CCCC2(CCCCC2)C1	
1.54 µM	2.64%	O=C(c1ccco1)N1CCCC2(CCCCC2)C1	
> 30 µM		O=C(N1CCN(c2ccncc2)CC1)C12CC3CC(CC(C3)C1)C2	
> 10 µM	36%	Cc1cc(C)c2c(N)c(C(=O)c3ccccc3)oc2n1	
		Cc1cc(=O)[nH]c2oc(C(=O)c3ccc(F)cc3)c(N)c12	EC50 [3]: 6.1 µM
> 10 µM	52%	COc1ccccc1N1CCN(C(=O)C23CC4CC(CC(C4)C2)C3)CC1	
> 10 µM	56.2%	Cc1ccc(C(=O)N2CCCC3(CCCCC3)C2)cc1	
> 10 µM	30.2%	O=C(N1CCN(c2cccnc2)CC1)C12CC3CC(CC(C3)C1)C2	
0.99 µM	3.75%	O=C(N1CCN(c2ccccn2)CC1)C12CC3CC(CC(C3)C1)C2	
		COCc1c(Cl)c(C)nc2oc(C(=O)c3ccc(F)cc3)c(N)c12	EC50 [3]: 6.5 µM; Activity [9]: 38.3%
> 10 µM	40.6%	O=C(C1CC1)N1CCCC2(CCCCC2)C1	
0.84 µM	1.58%	Cc1cc(C(F)(F)F)c2c(N)c(C(=O)c3ccc(F)cc3)oc2n1	
> 10 µM	26.1%	O=C(C1CCCC1)N1CCCC2(CCCCC2)C1	
		Cc1cc(O)nc2oc(C(=O)c3ccc(F)cc3)c(N)c12	Activity [9]: 32.9%
9.3 µM	19.4%	Cc1cc(C)c2c(N)c(C(=O)c3ccc(F)cc3F)oc2n1	
		Nc1c(C(=O)c2ccc(F)cc2)oc2ncc(Br)cc12	EC50 [3]: 7.6 µM; Activity [9]: 73.5%

Compound	IC50 [1]	Activity [2]	also measured
O=C(N1CCN(c2nccs2)CC1)C12CC3CC(CC(C3)C1)C2		1.16%	IC50 [4]: > 30 µM; IC50 [5]: > 30 µM; IC50 [6]: > 30 µM; IC50 [7]: > 30 µM; IC50 [8]: > 30 µM
O=C(C1CCC1)N1CCCC2(CCCCC2)C1		1.12%	IC50 [4]: > 30 µM; IC50 [5]: > 30 µM; IC50 [6]: > 30 µM; IC50 [7]: > 30 µM; IC50 [8]: > 30 µM; IC50 [10]: > 30 µM
